Experimental data taken from patent US20020164755A1, “Stable esterase, a process for the extraction thereof, and use thereof for cleaving acyclic monoterpenyl esters into their monoterpenols” (Council of Scientific and Industrial Research, priority 2000, published 2002).
Structures can show the parent of a compound that is named as a salt.

Columns and labels:
[1] = system: esterase enzyme from palmarosa inflorescence (60-80% ammonium sulphate precipitated fraction); test: Hydrolysis of mixture of acyclic monoterpenyl esters by 60-80% ammonium sulphate precipitated protein fraction; type: biochemical, Cymbopogon martinii; conditions: 60-80% fraction, 1 mg protein; ester rich fraction from citronella java (geranyl acetate:geranyl formate:citronellyl acetate 60:18:21) as substrate
Procedure: (§1) The geranyl acetate cleaving esterase activity was determined by GLC monitoring of geraniol produced by the hydrolysis of geranyl acetate. The assay system consisted of 0.05M Tris-HCl buffer (pH 8.5), 5 mM MgCl2. 6H2O, 1 mM DTE, 2 mM geranyl acetate and enzyme extract (approximately 1 mg protein), in a total volume of 0.5 ml. The reaction mixture was incubated at 30° C. in a sealed capped tube for 3-4 hours. The geraniol produced and leftover geranyl acetate was then extracted with ether and subjected to GLC. The appearance of geraniol peak indicated the presence of geranyl acetate cleaving esterase activity (FIG. 1). A blank with the boiled enzyme was also run simultaneously.
(§2) The gas liquid chromatographic (GLC) analysis, for the determination of geraniol produced and leftover geranyl acetate, was performed using a Perkin Elmer (model 3920 B) apparatus equipped with FID (flame ionization detector) stainless steel column (2 m×3 mm i.d.) packed with 10% FFAP (free fatty acid phase) on chromosorb WAW (80-100 mesh). The operating conditions were: Column temperature isothermal at 165° C., injector and detector temperature 200° C. and 250° C. respectively. Nitrogen and hydrogen flow rate were a adjusted to 30 ml/min and 28 ml/min, respectively. The geraniol and geranyl acetate peaks were identified by coinjecting authentic standards and quantified using a Varian integrator (model 4400).
Monoterpenyl ester rich fraction from citronella java containing geranyl acetate, geranyl formate and citronellyl acetate in proportion (60:18:21) was used as substrate. […] Furthermore, crude esterase enzyme was also able to cleave these acyclic monoterpenyl esters but to a lesser extent.

[2] = system: esterase enzyme from palmarosa inflorescence; test: Hydrolysis of geranyl acetate and other acyclic monoterpenyl esters by crude enzymic preparation from palmarosa inflorescence, GLC monitoring; type: biochemical, Cymbopogon martinii; conditions: for Hydrolysis by crude enzymic preparation (in words): crude enzymic preparation from palmarosa inflorescence; for % Geranyl acetate hydrolyzed: 10 μmol geranyl acetate, 1 mg protein, 30° C.
Procedure: The extraction medium for the esterase enzyme consisted of 0.1 M NaPi buffer (pH 6.5) containing 50 mM sodium metabisulphite, 10 mM β-mercaptoethanol, 10 mM ascrobic acid, 0.25 M sucrose and 1 mM EDTA-Na2. Tissue (palmarosa inflorescence) was homogenized in cold extraction medium (1 g tissue/3 ml) in the presence of 50% (w/w) insoluble PVPP (polyvinyl polypyrrolidone), which prevent enzymic browning of the homogenate. The slurry was squeezed through four layers of muslin cloth and centrifuged at 15,000×g for 60 min. Purified amberlite XAD-4 resin (50% of the tissue weight) was added to the supernatant and kept for 5 minutes at 4° C., to remove the endogenous terpenes of the tissue, which can produce a significant artefact in the determination of esterase enzyme activity. The slurry thus formed was filtered through muslin cloth and the clear supernatant obtained was used to determine the acyclic monoterpenyl esters cleaving esterase activity using geranyl acetate as a model substrate. This supernatant fraction was also used for ammonium sulphate fractionation of the esterase enzyme.
Preliminary enzyme assays were done to optimize the assay conditions, and linearity of the reaction rate with time as well as enzyme concentration. The terpenoid substrates were solubilized by its dispersion in the solution of Tween-20 (10 μg/μmol of the substrate). A gas liquid chromatographic (GLC) procedure has been developed to detect the acyclic monoterpenyl esters cleaving esterase activity. […] Saturating levels (10 μmol) of the substrate geranyl acetate and 0.5 to 1.0 mg of the enzyme protein were used in each assay.
as §1, §2
Time course experiment was performed to study the linearity of the hydrolysis of geranyl acetate during the incubation period using enzymic preparation from palmarosa inflorescence. A linear catalytic rate was found up to six hours of incubation at 30° C. Almost 75% of the geranyl acetate was hydrolyzed after 24 hours of incubation (Table 1, FIG. 2).

CC(=O)OCCC(C)CCC=C(C)C (centres unmarked) [Citronellyl acetate, citronellyl acetate]
% esters hydrolyzed per 3 hours [1]: 6.78%
Hydrolysis by crude enzymic preparation (in words) [2]: could also hydrolyze

CC(C)=CCC/C(C)=C/COC=O [Geranyl formate, geranyl formate]
% esters hydrolyzed per 3 hours [1]: 4.86%
Hydrolysis by crude enzymic preparation (in words) [2]: could also hydrolyze

CC(=O)OC/C=C(\C)CCC=C(C)C [geranyl acetate]
% esters hydrolyzed per 3 hours [1]: 19.23%
% Geranyl acetate hydrolyzed ([2]; incubation time 2 hour): 8.2%
% Geranyl acetate hydrolyzed ([2]; incubation time 4 hour): 22.3%
% Geranyl acetate hydrolyzed ([2]; incubation time 6 hour): 32%
% Geranyl acetate hydrolyzed ([2]; incubation time 8 hour): 35.7%
% Geranyl acetate hydrolyzed ([2]; incubation time 10 hour): 47.1%
% Geranyl acetate hydrolyzed ([2]; incubation time 12 hour): 53.2%
